Patent US9758520B2, “Substituted fused heterocycles as GPR119 modulators for the treatment of diabetes, obesity, dyslipidemia and related disorders” (SANOFI, priority 2014, dated 2017)

Molecular target: T1, human GPR119 (Homo sapiens, UniProt Q8TDV5)
T1 construct: expressed in transfected cells
T1 sequence (Q8TDV5 1-335): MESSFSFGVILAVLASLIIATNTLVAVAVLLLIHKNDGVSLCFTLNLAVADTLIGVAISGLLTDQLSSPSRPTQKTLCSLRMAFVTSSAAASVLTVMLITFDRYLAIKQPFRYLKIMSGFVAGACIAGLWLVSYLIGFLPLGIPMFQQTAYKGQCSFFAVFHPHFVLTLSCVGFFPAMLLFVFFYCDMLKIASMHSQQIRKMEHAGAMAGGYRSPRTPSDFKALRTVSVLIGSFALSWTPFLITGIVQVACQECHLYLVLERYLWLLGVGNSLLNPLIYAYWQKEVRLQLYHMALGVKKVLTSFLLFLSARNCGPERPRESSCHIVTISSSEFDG
Experiment: Functional cellular assay measuring GPR119-mediated cAMP release (HTRF) in HEK-293 cells stably expressing recombinant GPR119
Assay type: cell-based
Details: cAMP response, cell line expressing human GPR119 (HEK-293), 30 minutes at room temperature
Experimental: Functional Cellular Assays Measuring GPR119-Mediated cAMP Release
Compounds of the invention, which are agonists of GPR119, were characterized by functional assays measuring the cAMP response of HEK-293 cell lines stably expressing recombinant GPR119 from man, mouse or rat, or by using a hamster cell line HIT-T15 expressing GPR119 endogenously. The cAMP content was determined using a kit based on homogenous time-resolved fluorescence (HTRF) from Cisbio Corp. (cat. no. 62AM4PEC). For preparation, cells were split into T175 culture flasks and grown to near confluency in medium (DMEM/10% FCS for HEK-293 cells, and F-12K medium/10% horse serum/2.5% FCS for HIT-T15 cells, respectively). Medium was then removed and cells washed with PBS lacking calcium and magnesium ions, followed by proteinase treatment with accutase (Sigma-Aldrich, cat. no. A6964). Detached cells were washed and resuspended in assay buffer (1×HBSS; 20 mM HEPES, 0.1% BSA, 2 mM IBMX) and cellular density determined. They were then diluted to 400000 cells/mL and 25 μL-aliquots dispensed to the wells of 96-well plates. For measurement, 25 μL of test compound in assay buffer was added and incubated for 30 minutes at room temperature. After addition of HTRF reagents diluted in lysis buffer, the plates were incubated for 1 hour, followed by measuring the fluorescence ratio at 665 vs. 620 nm. Potency of the agonists was quantified by determining the concentrations that caused 50% of the maximal response/activation (EC50). See Table 3 for exemplary data obtained using the cell line expressing human GPR119.

Structure (SMILES) | EC50 [nM]
COC(=O)Cn1nc2c(F)cc(N3CC[C@@H](Oc4ccc(OCC5CC5)nc4)C3=O)cn2c1=O [Example 1-28, methyl 2-[6-[(3R)-3-[[6-(cyclopropylmethoxy)-3-pyridyl]oxy]-2-oxo-pyrrolidin-1-yl]-8-fluoro-3-oxo-[1,2,4]triazolo[4,3-a]pyridin-2-yl]acetate] | 70
CN(C)C(=O)Cn1nc2ccc(N3CC[C@@H](Oc4ccc(OCC(F)(F)F)nc4)C3=O)cn2c1=O [Example 1-30, N,N-dimethyl-2-[3-oxo-6-[(3R)-2-oxo-3-[[6-(2,2,2-trifluoroethoxy)-3-pyridyl]oxy]pyrrolidin-1-yl]-[1,2,4]triazolo[4,3-a]pyridin-2-yl]acetamide] | 203
CS(=O)(=O)Cn1nc2ccc(N3CC[C@@H](Oc4ccc(Oc5ccc(F)cc5)nc4)C3=O)cn2c1=O [Example 1-31, 6-[(3R)-3-[[6-(4-fluorophenoxy)-3-pyridyl]oxy]-2-oxo-pyrrolidin-1-yl]-2-(methylsulfonylmethyl)-[1,2,4]triazolo[4,3-a]pyridin-3-one] | 365
CS(=O)(=O)Cn1nc2ccc(N3CC[C@@H](Oc4ccc(C(=O)C5CC5)cc4)C3=O)cn2c1=O [Example 1-32, 6-[(3R)-3-[4-(cyclopropanecarbonyl)phenoxy]-2-oxo-pyrrolidin-1-yl]-2-(methylsulfonylmethyl)-[1,2,4]triazolo[4,3-a]pyridin-3-one] | 196
CS(=O)(=O)Cn1nc2ccc(N3CC[C@@H](Oc4ccc(OCC(F)(F)F)nc4)C3=O)cn2c1=O [Example 1-33, 2-(methylsulfonylmethyl)-6-[(3R)-2-oxo-3-[[6-(2,2,2-trifluoroethoxy)-3-pyridyl]oxy]pyrrolidin-1-yl]-[1,2,4]triazolo[4,3-a]pyridin-3-one] | 113
CN(C)C(=O)Cn1cc2cc(N3CC[C@@H](Oc4ccc(OCC(F)(F)F)nc4)C3=O)ccc2n1 [Example 1-34, N,N-dimethyl-2-[5-[(3R)-2-oxo-3-[[6-(2,2,2-trifluoroethoxy)-3-pyridyl]oxy]pyrrolidin-1-yl]indazol-2-yl]acetamide] | 103
CN(C)C(=O)Cn1nc2c(F)cc(N3CC[C@@H](Oc4ccc(OCC5CC5)nc4)C3=O)cn2c1=O [Example 2-01, 2-[6-[(3R)-3-[[6-(cyclopropylmethoxy)-3-pyridyl]oxy]-2-oxo-pyrrolidin-1-yl]-8-fluoro-3-oxo-[1,2,4]triazolo[4,3-a]pyridin-2-yl]-N,N-dimethyl-acetamide] | 126

The next lines start with the values.

EC50 [nM] | Structure (SMILES)
123 | O=C(Cn1nc2c(F)cc(N3CC[C@@H](Oc4ccc(OCC5CC5)nc4)C3=O)cn2c1=O)NC1CC1 [Example 2-02, N-cyclopropyl-2-[6-[(3R)-3-[[6-(cyclopropylmethoxy)-3-pyridyl]oxy]-2-oxo-pyrrolidin-1-yl]-8-fluoro-3-oxo-[1,2,4]triazolo[4,3-a]pyridin-2-yl]acetamide]
127 | CN(C)C(=O)Cn1nc2ccc(N3CC[C@@H](Oc4ccc(OCC5CC5)nc4)C3=O)cc2n1 [Example 2-03, 2-[5-[(3R)-3-[[6-(cyclopropylmethoxy)-3-pyridyl]oxy]-2-oxo-pyrrolidin-1-yl]benzotriazol-2-yl]-N,N-dimethyl-acetamide]
343 | O=C(Cn1nc2ccc(N3CC[C@@H](Oc4ccc(OCC5CC5)nc4)C3=O)cc2n1)NCCO [Example 2-04, 2-[5-[(3R)-3-[[6-(cyclopropylmethoxy)-3-pyridyl]oxy]-2-oxo-pyrrolidin-1-yl]benzotriazol-2-yl]-N-(2-hydroxyethyl)acetamide]
196 | NC(=O)Cn1nc2ccc(N3CC[C@@H](Oc4ccc(OCC5CC5)nc4)C3=O)cc2n1 [Example 2-05, 2-[5-[(3R)-3-[[6-(cyclopropylmethoxy)-3-pyridyl]oxy]-2-oxo-pyrrolidin-1-yl]benzotriazol-2-yl]acetamide]
